pIC50, pKd: −log10 of the molar value. Where two headings read alike, the source gives them in different places. Numbered stars: 1 amine (or outer) side, 2 acyl side, 3 side chain; on linkers, the order of the positions; unused ones are H or OH. Bridge positions count the residues as written; N and C are the ends. Square brackets hold non-standard residues; d marks the D form. Peptide text beside a SMILES is read from it. * marks the point of attachment. Trp(βS-Me,7-OMe) = COc1cccc2c([C@H](C)[C@H](N)C(=O)O)c[nH]c12; Trp(1-CH2COOH) = N[C@@H](Cc1cn(CC(=O)O)c2ccccc12)C(=O)O; Morpholine(3S-CO,6,6-Me2) = CC1(C)CN[C@H](C(=O)O)CO1; Trp(7-CN) = N#Cc1cccc2c(C[C@H](N)C(=O)O)c[nH]c12; Trp(7-Cl) = N[C@@H](Cc1c[nH]c2c(Cl)cccc12)C(=O)O; Phe(3-CONH2) = NC(=O)c1cccc(C[C@H](N)C(=O)O)c1; Phe(4-CONH2) = NC(=O)c1ccc(C[C@H](N)C(=O)O)cc1; Phe(4-COOH) = N[C@@H](Cc1ccc(C(=O)O)cc1)C(=O)O; X9 = CN(C)[C@@H]1C[C@H](C(=O)[*:2])N([*:1])C1; dPro(4S-NH2) = N[C@@H]1CN[C@@H](C(=O)O)C1; Pip(5R-OH) = O=C(O)[C@@H]1CC[C@@H](O)CN1; X1 = O=C([C@@H]1CC[C@H](N[*:1])C1)[*:2]; Pip(4-aza) = O=C(O)[C@@H]1CNCCN1; 4Pal = N[C@@H](Cc1ccncc1)C(=O)O; NMeE = CN[C@@H](CCC(=O)O)C(=O)O; dHyp = O=C(O)[C@H]1C[C@H](O)CN1; Ahp(2) = CCCCC[C@H](N)C(=O)O; NEtAla = CCN[C@@H](C)C(=O)O; αMeS = C[C@](N)(CO)C(=O)O; Carboxymethyl = O=C(O)C*; Nle = CCCC[C@H](N)C(=O)O; Sar = CNCC(=O)O
Legend:
[1] = molecular target: T1, TNFα-induced NF-κB signal transduction pathway (TNFR1 signaling) in THP-1 cells (Homo sapiens, UniProt P19438); assay: THP-1 Lucia NF-κB reporter cell assay, inhibition of TNFα-induced NF-κB signaling; type: cell-based; settings: THP-1 NF-κB Lucia reporter cells, 10 ng/mL TNFα, 16-18 h, secreted luciferase; read-out: THP-1 IC50
T1 sequence (P19438 30-455): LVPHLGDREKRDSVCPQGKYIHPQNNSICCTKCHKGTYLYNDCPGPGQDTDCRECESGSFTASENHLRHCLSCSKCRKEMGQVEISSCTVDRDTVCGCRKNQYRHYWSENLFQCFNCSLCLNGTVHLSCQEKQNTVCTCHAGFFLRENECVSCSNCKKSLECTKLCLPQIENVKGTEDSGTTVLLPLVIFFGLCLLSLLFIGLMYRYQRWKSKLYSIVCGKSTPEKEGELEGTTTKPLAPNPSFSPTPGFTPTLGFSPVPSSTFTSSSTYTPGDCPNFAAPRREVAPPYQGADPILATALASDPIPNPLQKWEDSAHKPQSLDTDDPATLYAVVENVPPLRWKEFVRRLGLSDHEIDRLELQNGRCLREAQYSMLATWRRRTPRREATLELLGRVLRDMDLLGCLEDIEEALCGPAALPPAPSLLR
Method in brief: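 Read-out: secreted Lucia luciferase luminescence (QUANTI-Luc) from supernatant after 16-18 h, 37 °C, 10 ng/mL rhTNFα. Peptide pretreatment 1 h at 37 °C; 20,000 cells/well, selection antibiotics omitted. IC50 via 4-parameter logistic model against min/max controls.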

[2] = molecular target: T2, human soluble TNFR1 (sTNFR1) (Homo sapiens, UniProt P19438); assay: Human sTNFR1-peptide displacement assay (LanthaScreen Eu TR-FRET binding assay)
T2 construct: made in house; host or cells: Sf21 (baculovirus)
T2 sequence (P19438 with tags, fused parts or gaps): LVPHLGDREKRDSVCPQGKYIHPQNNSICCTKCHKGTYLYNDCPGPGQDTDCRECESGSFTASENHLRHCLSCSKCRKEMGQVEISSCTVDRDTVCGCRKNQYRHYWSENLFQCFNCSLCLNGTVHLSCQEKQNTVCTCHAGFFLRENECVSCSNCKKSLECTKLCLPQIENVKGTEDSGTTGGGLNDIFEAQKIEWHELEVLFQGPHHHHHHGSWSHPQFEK
Method in brief: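 Readout is the 665/615 nm TR-FRET ratio (Eu anti-His donor, streptavidin-Alexa647 acceptor), normalized to DMSO and saturating displacer, fit by Morrison-based five-parameter logistic for Kd^app. His-tagged sTNFR1 (1-211) prebound to 100 nM biotinylated peptide SEQ ID NO.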

[3] = displacement of biotinylated peptide SEQ ID NO. 1 from sTNFR1, 20 point titration, 5-parameter fit based on Morrison equation (tight binding), read-out: TR-FRET Kd^app

Compound | pIC50 [1] | pKd [2] | pKd [2, 3] | pIC50 ([2]; displacement of biotinylated peptide SEQ ID NO. 1 from sTNFR1, weaker binders, 10 pts titration, 4-parameter logistic model, read-out: TR-FRET, IC50)
CCCC[C@@H]1NC(=O)[C@@H]2CC[C@@H](C2)NC(=O)[C@H]([C@@H](C)c2c[nH]c3c(OC)cccc23)NC(=O)CN(C)C(=O)[C@H](Cc2ccc(O)cc2)NC(=O)[C@H](Cc2ccc(OCC(=O)O)cc2)NC(=O)[C@](C)(CO)NC(=O)[C@H](Cc2c[nH]c3c(Cl)cccc23)NC(=O)[C@H](Cc2ccncc2)NC(=O)[C@H](CC(N)=O)NC(=O)[C@H](CCC(=O)O)N(C)C(=O)[C@H](Cc2c[nH]c3ccccc23)NC(=O)[C@@H]2CNCCN2C(=O)[C@H](Cc2ccncc2)NC1=O [SEQ ID NO. 80] (cyclo([4Pal][Trp(7-Cl)][αMeS]Y(Carboxymethyl)Y[Sar][Trp(βS-Me,7-OMe)][X1][Nle][4Pal][Pip(4-aza)]W[NMeE]N)) | 8.92 | 9.52 |  | 
CCCC[C@@H]1NC(=O)[C@@H]2CC[C@@H](C2)NC(=O)[C@H]([C@@H](C)c2c[nH]c3c(OC)cccc23)NC(=O)CN(C)C(=O)[C@H](Cc2ccc(C(=O)O)cc2)NC(=O)[C@H](Cc2ccc(C(N)=O)cc2)NC(=O)[C@](C)(CO)NC(=O)[C@H](Cc2c[nH]c3c(Cl)cccc23)NC(=O)[C@H](Cc2ccncc2)NC(=O)[C@H](CC(N)=O)NC(=O)[C@H]2C[C@H](O)CN2C(=O)[C@H](Cc2c[nH]c3ccccc23)NC(=O)[C@@H]2CNCCN2C(=O)[C@H](Cc2ccncc2)NC1=O [SEQ ID NO. 83] (cyclo([4Pal][Trp(7-Cl)][αMeS][Phe(4-CONH2)][Phe(4-COOH)][Sar][Trp(βS-Me,7-OMe)][X1][Nle][4Pal][Pip(4-aza)]W[dHyp]N)) | 9.22 |  | 9.80 | 
CCCCC[C@@H]1NC(=O)[C@@H]2CC[C@@H](C2)NC(=O)[C@H]([C@@H](C)c2c[nH]c3c(OC)cccc23)NC(=O)CN(C)C(=O)[C@H](Cc2cccc(C(N)=O)c2)NC(=O)[C@H](Cc2ccc(C(N)=O)cc2)NC(=O)[C@](C)(CO)NC(=O)[C@H](Cc2c[nH]c3c(C#N)cccc23)NC(=O)[C@H](Cc2ccc(C(=O)O)cc2)NC(=O)[C@H](CC(N)=O)NC(=O)[C@H]2C[C@@H](N(C)C)CN2C(=O)[C@H](Cc2c[nH]c3ccccc23)NC(=O)[C@@H]2CC[C@@H](O)CN2C(=O)[C@H](Cc2ccncc2)NC1=O [SEQ ID NO. 84] (cyclo([4Pal][Pip(5R-OH)]W[X9]N[Phe(4-COOH)][Trp(7-CN)][αMeS][Phe(4-CONH2)][Phe(3-CONH2)][Sar][Trp(βS-Me,7-OMe)][X1][Ahp(2)])) | 9.22 | 10.22 |  | 
CCCC[C@@H]1NC(=O)[C@@H]2CC[C@@H](C2)NC(=O)[C@H]([C@@H](C)c2c[nH]c3c(OC)cccc23)NC(=O)CN(C)C(=O)[C@H](Cc2ccc(C(=O)O)cc2)NC(=O)[C@H](Cc2ccc(C(N)=O)cc2)NC(=O)[C@](C)(CO)NC(=O)[C@H](Cc2c[nH]c3c(C#N)cccc23)NC(=O)[C@H](Cc2ccc(C(=O)O)cc2)NC(=O)[C@H](CC(N)=O)NC(=O)[C@H]2C[C@H](N)CN2C(=O)[C@H](Cc2cn(CC(=O)O)c3ccccc23)NC(=O)[C@@H]2CC[C@@H](O)CN2C(=O)[C@H](Cc2ccncc2)NC1=O [SEQ ID NO. 104] (cyclo([4Pal][Pip(5R-OH)][Trp(1-CH2COOH)][dPro(4S-NH2)]N[Phe(4-COOH)][Trp(7-CN)][αMeS][Phe(4-CONH2)][Phe(4-COOH)][Sar][Trp(βS-Me,7-OMe)][X1][Nle])) | 9.00 |  | 10.05 | 
CCCC[C@@H]1NC(=O)CSC[C@@H](C(N)=O)NC(=O)[C@H]([C@@H](C)c2c[nH]c3c(OC)cccc23)NC(=O)CN(C)C(=O)[C@H](Cc2ccc(O)cc2)NC(=O)[C@H](Cc2ccc(C(=O)O)cc2)NC(=O)[C@](C)(CO)NC(=O)[C@H](Cc2c[nH]c3c(Cl)cccc23)NC(=O)[C@H](Cc2ccncc2)NC(=O)[C@H](CC(N)=O)NC(=O)[C@H](C)N(CC)C(=O)[C@H](Cc2c[nH]c3ccccc23)NC(=O)[C@@H]2COC(C)(C)CN2C(=O)[C@H](Cc2ccncc2)NC1=O [SEQ ID NO. 183] ({CH2CO}-[Nle][4Pal][Morpholine(3S-CO,6,6-Me2)]W[NEtAla]N[4Pal][Trp(7-Cl)][αMeS][Phe(4-COOH)]Y[Sar][Trp(βS-Me,7-OMe)]C-NH2; thioether N-14) | 8.55 |  | 9.77 | 9.30
